Measured values as given in patent publication US3991057A, “C-Piperazino-pyridine sulfonamides” (A. Christiaens Societe Anonyme, priority 1970, dated 1976).
Where a name gives a salt, the structure may show the parent alone. Read-outs that look alike come from different tables or passages of the source.

How the values were obtained:
[1] = system: carrageenan-induced paw oedema; assay: Acute oedema induced by carrageenan (anti-inflammatory test, rat paw swelling by plethysmography); assay type: in vivo; details: for inhibition in vivo at 100 mg/kg: Rattus norvegicus, read-out: Acute oedema induced by carrageenan, % of inhibition
Method: The anti-inflammatory properties are determined as follows:
The compounds to be tested are given as freshly prepared solutions or suspensions by oral route one hour before injecting the paw with carrageenan, a known inflammatory agent.
The inflammatory agent either in aqueous solution or suspension is then injected into the plantar tissue of the right hind paw of each rat, the left paw remaining untreated and serving as control. Each animal receives for example 0.05 ml of an aqueous solution containing 1 % of carrageenan and 0.9 % of sodium chloride.
4 hours after injection, the importance of swelling is determined by plethysmography and is expressed as a percent of the volume of the control paw.
The anti-inflammatory effect expressed as a percent of inhibition is obtained by comparison between rats treated with the anti-inflammatory agent and a control group of rats.
100 mg/kg of anti-inflammatory agent are administered by oral route.

[2] = system: test animal (left carotid and femoral artery flow, ventricular and aortic pressure); assay: Cardiovascular properties (flow rates of carotid and femoral artery, ventricular and aortic pressures) in the test animal; assay type: in vivo; parameters: ventricular and aortic pressures after moderate lowering: unit not given here; details: for ventricular and aortic pressures after sharp fall: from 130 mm of Hg
Method: Some compounds of this invention also have interesting cardiovascular properties so that they may be used as cerebral, coronary and peripheral vasodilators and hypotension-inducing agents, whereby the hypotension activity may occur primarily or secondarily with respect to the peripheral vasodilatation.
These cardiovascular properties have been found as follows:
After administration of the compound at the hereafter-indicated doses, the following parameters are measured on the test animal: the electrocardiogram, the left ventricular pressure, the amplified telediastolic pressure, the derivative of the ventricular pressure with respect to time (dp/dt), the aortic pressure, the average and pulsatile blood flow of the left carotid and femoral artery.

[3] = 100 mg/kg oral, one hour before carrageenan, 4 hours after injection

## CCNC(=O)c1cccnc1N1CCN(C)CC1 [Example 21, 2-(4'-methyl-1'-piperazinyl)-pyridine-3-ethylcarboxamide]
[1]; [3]
  inhibition in vivo at 100 mg/kg: 44.4%

## CCNS(=O)(=O)c1ccc(N2CCN(C)CC2)nc1 [Example 11, 2-(4'-methyl-1'-piperazinyl)-pyridine-5-ethylsulfonamide]
[1]; [3]
  inhibition in vivo at 100 mg/kg: 42.4%

## O=C(O)c1ccccc1Nc1cccc(C(F)(F)F)c1 [Flufenamic acid, reference compound]
[1]; [3]
  inhibition in vivo at 100 mg/kg: 34%

## COCCNS(=O)(=O)c1cnccc1N1CCN(C)CC1 [Example 39, 4-(4'-methyl-1'-piperazinyl)-pyridine-3-methyoxyethylsulfonamide]
[2]; 2 mg/kg
  time to return of ventricular and aortic pressures to the starting values / reversal of lowering: less than 3 min
  ventricular and aortic pressures after sharp fall: 90 mm of Hg
[2]; 2 mg/kg, maximum where stated
  increase of the carotid flow rate: 75%
[2]; 4 mg/kg
  duration of hypotension / fall of pressure: 2 min
  increase of the peripheral flow rates: 50%
  time to return of pressures to the starting values: 30 min
  ventricular and aortic pressures after sharp fall: 40 mm of Hg
[1]; [3]
  inhibition in vivo at 100 mg/kg: 55.2%

## CC(C)NC(=O)c1cccnc1N1CCN(C)CC1 [Example 22, 2-(4'-methyl-1'-piperazinyl)-pyridine-3-isopropylcarboxamide]
[1]; [3]
  inhibition in vivo at 100 mg/kg: 40%

## CCN(CC)S(=O)(=O)c1cccnc1N1CCN(C)CC1 [Example 5, 2-(4'-methyl-1'-piperazinyl)-pyridine-3-diethylsulfonamide dihydrochloride]
[1]; [3]
  inhibition in vivo at 100 mg/kg: 44%

## CNC(=O)c1cccnc1N1CCN(C)CC1 [Example 19, 2-(4'-methyl-1'-piperazinyl)-pyridine-3-methylcarboxamide]
[1]; [3]
  inhibition in vivo at 100 mg/kg: 51.2%

## CN1c2ccccc2Sc2ccc(CC(=O)O)cc21 [Methiazinic acid, reference compound]
[1]; [3]
  inhibition in vivo at 100 mg/kg: 46%

## CCOCCNS(=O)(=O)c1cnccc1N1CCN(C)CC1 [Example 40, 4-(4'-methyl-1'-piperazinyl)-pyridine-3-ethoxyethylsulfonamide]
[2]; 2 mg/kg
  duration of activity on / increase of the carotid and femoral flow rates: less than 5 min
  variation of the cardiac and peripheral pressures: without variation
[2]; 2 mg/kg, maximum
  increase of the femoral flow rate: 50%
[2]; 2 mg/kg, maximum where stated
  increase of the carotid flow rate: 300%
[2]; 4 mg/kg
  duration of hypotension / fall of pressure: 3 min
  increase of the carotid flow rate: moderate increase of the carotid flow rate remains after return of the pressure rates to normal conditions
  return of blood pressure to the starting values: quick return to the starting values
[2]; 4 mg/kg, from 150 mm of Hg
  blood pressure after moderate fall: 90 mm of Hg
[1]; [3]
  inhibition in vivo at 100 mg/kg: 60%

## CCNS(=O)(=O)c1cccnc1N1CCN(C)CC1 [Example 4, 2-(4'-methyl-1'-piperazinyl)-pyridine-3-ethylsulfonamide]
[1]; [3]
  inhibition in vivo at 100 mg/kg: 50%

## CCN(CC)S(=O)(=O)c1cnccc1N1CCN(C)CC1 [Example 32, 4-(4'-methyl-1'-piperazinyl)-pyridine-3-diethylsulfonamide]
[2]; 2 mg/kg
  time to fall of cardiac and peripheral pressures: ≤ 45 s
[2]; 2 mg/kg, after 5 minutes
  cardiac and peripheral pressures on recovery: 135 mm of Hg
[2]; 2 mg/kg, from 150 mm of Hg
  cardiac and peripheral pressures after fall: 75 mm of Hg
[2]; 2 mg/kg, maximum where stated
  increase of the carotid flow rate: 60%
[2]; 4 mg/kg
  duration of hypotension / fall of pressure: more than 20 min
  time to return of pressures to the starting values: > 70 min
[2]; 4 mg/kg, after 70 minutes
  pressure on return to the starting values: 130 mm of Hg
[2]; 4 mg/kg, from 135 mm of Hg
  pressure in moderate hypotension: 75 mm of Hg
[1]; [3]
  inhibition in vivo at 100 mg/kg: 44.8%

## CNS(=O)(=O)c1cnccc1N1CCN(C)CC1 [Example 29, 4-(4'-methyl-1'-piperazinyl)-pyridine-3-methylsulfonamide]
[2]; 2 mg/kg
  duration of increase of the femoral flow rate: less than 5 min
[2]; 2 mg/kg, maximum
  increase of the femoral flow rate: 80%
[2]; 4 mg/kg
  duration of increase of the carotid and femoral flow rates: 10 min
  modification of the pressures: slight reflex modification of the pressures
[2]; 4 mg/kg, maximum where stated
  increase of the carotid flow rate: 120%
  increase of the femoral flow rate: 80%
[2]; 10 mg/kg
  increase of the carotid flow rate: 300%
  phenomena (flow rates and pressures) compared with 4 mg/kg: identical phenomena occur which are however stronger and of longer duration

## CN1CCN(c2ncccc2C#N)CC1 [Example 14, 2-(4'-methyl-1'-piperazinyl)-3-cyanopyridine hydrochloride]
[1]; [3]
  inhibition in vivo at 100 mg/kg: 63.2%

## CN1CCN(c2ccc(C#N)cn2)CC1 [Example 23, 2-(4'-methyl-1'-piperazinyl)-5-cyanopyridine]
[1]; [3]
  inhibition in vivo at 100 mg/kg: 48.8%

## CN1CCN(c2ccncc2S(N)(=O)=O)CC1 [Example 28, 4-(4'-methyl-1'-piperazinyl)-pyridine-3-sulfonamide]
[2]; 2 mg/kg
  duration of activity on / increase of the carotid and femoral flow rates: more than 5 min
  time to return of ventricular and aortic pressures to the starting values / reversal of lowering: ≤ 2 min
[2]; 2 mg/kg, from 160 mm of Hg
  ventricular and aortic pressures after moderate lowering: 100
[2]; 2 mg/kg, maximum
  increase of the femoral flow rate: 100%
[2]; 2 mg/kg, maximum where stated
  increase of the carotid flow rate: 150%
[2]; 4 mg/kg
  phenomena (flow rates and pressures) compared with 2 mg/kg: The same phenomena occur
  time to return of pressures to the starting values: 40 min
[2]; 4 mg/kg, from 160 mm of Hg
  ventricular and aortic pressures after lowering: 70 mm of Hg
[2]; 8 mg/kg
  phenomena (flow rates and pressures) compared with 4 mg/kg: identical phenomena are observed
  time to return of pressures to their starting value: 50 min

## CN(C)C=NS(=O)(=O)c1cnccc1N1CCN(C)CC1 [Example 48, 4-(4'-methyl-1'-piperazinyl)-pyridine-3-dimethylaminomethinesulfonamide]
[2]; 2 mg/kg
  duration of activity on / increase of the carotid and femoral flow rates: 5 min
  increase of the carotid and femoral flow rates: 100%
[2]; 4 mg/kg
  duration of increase of the carotid and femoral flow rates: 10 min
  fall of the ventricular and aortic pressures: temporary and moderate fall
[2]; 4 mg/kg, compared with 2 mg/kg
  increase of the carotid and femoral flow rates: stronger and longer
[2]; 8 mg/kg
  phenomena (flow rates and pressures) compared with 4 mg/kg: Identical phenomena are observed

## CC(=O)Oc1ccccc1C(=O)O [Acetosalicylic acid, reference compound]
[1]; po, 4 h
  inhibition in vivo at 100 mg/kg: 0%

## CCCCC1C(=O)N(c2ccccc2)N(c2ccccc2)C1=O [Phenylbutazone, reference compound]
[1]; [3]
  inhibition in vivo at 100 mg/kg: 41%

## CC(C)NC(=O)c1ccc(N2CCN(C)CC2)nc1 [Example 27, 2-(4'-methyl-1'-piperazinyl)-5-isopropylcarboxamide]
[1]; [3]
  inhibition in vivo at 100 mg/kg: 32%

## CN1CCN(CCNS(=O)(=O)c2cnccc2N2CCN(C)CC2)CC1 [Example 38, 4-(4'-methyl-1'-piperazinyl)-pyridine-3-(4"-methyl-1"-piperazinyl)-ethylsulfonamide]
[2]; 2 mg/kg
  activity on the carotid and femoral flow rates: slight and breaf
  duration of activity on / increase of the carotid and femoral flow rates: 5 min
[2]; 4 mg/kg and 8 mg/kg
  duration of action on the carotid and femoral flow rates: 10 min
  increase of the average flow rates (carotid and femoral): 100%
[1]; [3]
  Acute oedema induced by carrageenan, % of inhibition: 60.8%

## O=C(O)c1cccnc1Nc1cccc(C(F)(F)F)c1 [Niflumic acid, reference compound]
[1]; [3]
  inhibition in vivo at 100 mg/kg: 32%

## CC(C)NS(=O)(=O)c1cnccc1N1CCN(C)CC1 [Example 33, 4-(4'-methyl-1'-piperazinyl)-pyridine-3-isopropylsulfonamide]
[2]; 2 mg/kg
  duration of increase of the average carotid flow rate: 5 min
  increase of the average carotid flow rate: slight increase
[2]; 4 mg/kg
  time the carotid flow rate remains high compared to control values: 10 min
  time to increase of the carotid flow rate: within two minutes
[2]; 4 mg/kg, after injection
  time to fall of femoral flow rate to the starting values: ≤ 2 min
[2]; 4 mg/kg, maximum where stated
  increase of the carotid flow rate: 300%
  increase of the femoral flow rate: 200%

## CN1CCN(c2ccc(C(=O)N(C)C)cn2)CC1 [Example 25, 2-(4'-methyl-1'-piperazinyl)-5-dimethylcarboxamide]
[1]; [3]
  inhibition in vivo at 100 mg/kg: 28.8%
